88 molecules from a melting point compilation (Tetko et al.; mined from patent text by program, amines drawn as free bases though some values may be those of a salt) can be followed below.

Residues, ends and D or L forms follow the SMILES beside them. *: point of attachment. Boc = CC(C)(C)OC(=O)*; OBn = c1ccc(CO*)cc1; Bn = c1ccc(C*)cc1

Molecule `CC(C)(C)OC(=O)N1C[C@@H]2SCCC(c3ccccc3)(c3ccccc3)[C@@H]2C1` (racemic) yielded a melting point of 162 °C.

Take `COc1ccc2nc(OC)cc(CCNC(C)=O)c2c1`: the melting point fell in the range of 119 to 121 °C.

The molecule `O=C(O)c1ccc2c(c1)oc(=O)c1cc(C(=O)O)ccc12` yielded a melting point of over 300 °C.

In turn, `O=C1COc2cccc3nc4c(c(c23)N1)CCCC4` returned a melting point of 201 to 202 °C.

With `CC(C)(C)c1ccc(S(=O)(=O)Nc2ncnc(OCCO)c2Br)cc1`, the melting point was in the range of 146 to 148 °C.

`COC1=Cc2c(n(C)c(=O)n2C)CC1=NNC(=N)N` yielded a melting point of 260 °C.

With `CN(C)CC1CCCCN1C1c2ccccc2Oc2ccccc21` (stereo not drawn), the melting point lay in the range of 81 to 83 °C.

`O=C(O)C(=O)c1ccoc1` yielded a melting point of 94.2 °C.

Regarding `CCCN=C(N)Nc1ccnc(SCCCC(=N)NC#N)n1`, the melting point fell in the range of 210 to 215 °C.

In turn, `CCCCCn1c(C2=CC(=O)c3ccccc3C2=O)ccc1C1=CC(=O)c2ccccc2C1=O` yielded a melting point of 128 °C.

On to `O=C1C(c2ccccc2)=C(c2ccccc2)C(c2ccccc2)C1c1ccccc1` (stereo not drawn), for which the melting point is 162 to 163 °C.

As to `COC12CC(C)(C)C(O1)C(=O)CC2C` (stereo not drawn), the melting point fell in the range of 38 to 39 °C.

Regarding `CCCc1cc(NC(=O)c2c(C)nn(C)c2C)c(C)cc1C(OC)(C(F)(F)F)C(F)(F)F`, the melting point was in the range of 132 to 134 °C.

The molecule `O=C1N(Cn2nc3ccccc3n2)c2ccccc2C12COc1cc3c(cc12)CCO3` (stereo not drawn) came in with a melting point of 102 to 105 °C.

With `C[C@H]1[C@H]2O[C@H]2C(S(=O)(=O)c2ccccc2)=C[C@H](C)[C@H]1O[Si](C)(C)C(C)(C)C`, the melting point lay in the range of 89 to 90 °C.

Take `COCOc1ccccc1-c1ccc(-c2ccc(C(=O)O)cc2)cc1-c1ccc2c(c1)C(C)(C)CCC2(C)C`: the melting point was 132 to 135 °C.

In turn, `COC[C@@H]1CCCN1S(=O)(=O)c1ccc2c(c1)C(=O)C1=NCCCN12` registered a melting point of 138 to 141 °C.

In the case of `N#Cc1ccc2oc(Cc3cc4cc(C#N)ccc4o3)cc2c1`, the melting point lay within 173 to 174 °C.

`C=CCC(CC=C)(CC=C)c1ccc(-c2nc3cc(C#N)c(C#N)cc3n2CCC)cc1` came in with a melting point of 132 to 134 °C.

`Clc1cnnc(Cl)c1Cl` returned a melting point of 61 °C.

In turn, `CC1CCC(=NNc2ccc([N+](=O)[O-])cc2[N+](=O)[O-])c2ncc(C(=O)O)c(=O)n21` (stereo not drawn) showed a melting point of 257 to 258 °C.

Turning to `c1ccc(NC2CCc3cccnc3C2)cc1` (stereo not drawn), the melting point is 102 to 103 °C.

`CC#CNc1c([N+](=O)[O-])cc(C(F)(F)F)c(Cl)c1[N+](=O)[O-]` came in with a melting point of 86 to 87 °C.

The molecule `NS(=O)(=O)c1nnc(NC(=O)c2ccccc2)s1` gave a melting point of 250 °C.

Molecule `COc1cc(Nc2c(C#N)cnc3cc(/C=C/CCO[Si](C)(C)C(C)(C)C)c(OC)cc23)c(Cl)cc1Cl` had a melting point of 97 to 99 °C.

With `CCOC(=O)c1c(-c2cc(C)c(O)c(C)c2)c(C)n2c1-c1cc(OC)c(OC)cc1C(C)(C)C2`, the melting point is 200 to 202 °C.

The molecule `Cn1cc(Br)c(=O)c(-c2cccc(C(F)(F)F)c2)c1` gave a melting point of 167 to 169 °C.

For the molecule `COc1cc(N)c(Cl)cc1C(=O)NC1CCN(CC2CCN(C(=O)N(C)C)CC2)CC1`, the melting point was in the range of 124 to 126 °C.

Molecule `CC(C)(C)c1cc(-c2nn(Cc3cccc(C(F)(F)F)c3)c3ncccc23)cc(C(C)(C)C)c1O` came in with a melting point of 160 to 163 °C.

`O=C(Nc1ccc(-n2nc(C(F)(F)F)cc2C(F)(F)F)cc1)c1ccc[nH]1` gave a melting point of over 240 °C.

Consider `CC1(C)COc2ccc(C(=O)O)cc2OC1`, for which the melting point was 172 to 173 °C.

On to `CN1CC2CCCCC2C1c1noc(=O)[nH]1` (stereo not drawn), for which the melting point is 102 to 104 °C.

Molecule `O=C(O)C1Cc2c(c(Br)cc3c(=O)c4ccccc4oc23)O1` (stereo not drawn) came in with a melting point of 283 to 286 °C.

For `CCc1cn(C(C)C(=O)N(C)C)nc1-c1ccccc1Cl` (stereo not drawn), the melting point fell in the range of 74 to 76 °C.

Regarding `CCn1ncc2c3[nH]cnc(=O)c3cnc21`, the melting point fell in the range of 320 to 322 °C.

`CCn1ncc2c3noc(-c4cccc(OC)c4)c3cnc21` returned a melting point of 170 to 171 °C.

As for `CCC=Cc1nc2ccccc2n1-c1cccc(C#N)c1C`, the melting point was 125 °C.

In the case of `Cc1ccnc(N2CCN(C(=O)CCCC3Cn4c(-c5cc(C)c(O)c(C)c5)c(C)c5cccc(c54)O3)CC2)c1` (stereo not drawn), the melting point came out at 112 °C.

Consider `CCOC(=O)c1ccc(NC(=O)C=CC=C(c2ccc(Cl)cc2)c2ccc(Cl)cc2)cc1`, for which the melting point fell in the range of 216 to 218 °C.

In turn, `CCc1nn2c(-c3ccccc3)ccnc2c1C#N` registered a melting point of 132 to 134 °C.

Molecule `CCC(C)Nc1c(C(F)(F)F)cc([N+](=O)[O-])c(Cl)c1[N+](=O)[O-]` (stereo not drawn) yielded a melting point of 90.5 to 91.5 °C.

On to `Cc1[nH]c2ccc(CCN(CC(C)C)CC(C)C)cc2c1C(=O)OCc1ccccc1`, for which the melting point fell in the range of 134 to 135 °C.

In turn, `O=C(O)C(Sc1nc2ccc(Cl)nc2s1)c1ccccc1` (stereo not drawn) registered a melting point of 175 to 177 °C.

In turn, `C=CC[C@@H](CO)[C@@H](O)[C@H](O)C(=O)CO` had a melting point of 112 to 113 °C.

Molecule `CCCCNC(=O)NC(=O)C(C)Oc1ccc(Oc2ncc(C(F)(F)F)cc2Cl)cc1` (stereo not drawn) gave a melting point of 126 to 127 °C.

`CC(=O)c1ccc(Cc2cn(-c3ccc(F)cc3)c3ncccc3c2=O)cc1` had a melting point of 227 to 229 °C.

`COC(=O)Cc1ccc(OCc2ccc(OCc3nc(-c4ccccc4)oc3C)cc2)cc1` registered a melting point of 93 to 94 °C.

In the case of `Cc1cc([N+](=O)[O-])c(O)cc1Cl`, the melting point is 70 to 71 °C.

In the case of `Cc1ccc(C2OC(=O)N(C(=O)NN3CCOCC3)C2C)cc1` (stereo not drawn), the melting point fell in the range of 124 to 125 °C.

`CN(C)S(=O)(=O)c1cc(-c2csc(=Nc3ccc(F)cc3)n2C)ccc1Cl` registered a melting point of 144 to 145 °C.

Molecule `CCOC(=O)NC1=NCC(c2ccc(OCC)cc2)N1C` (stereo not drawn) showed a melting point of 115 to 116 °C.

For `CCC1NC(=O)N(c2ccccc2)C(=O)N1OC(C)=O` (stereo not drawn), the melting point is 128 to 130 °C.

In turn, `CN(C)c1ccc(C2CCCN2S(=O)(=O)c2ccc(Cl)cc2)cc1Cl` (racemic) showed a melting point of 103 °C.

The molecule `NS(=O)(=O)c1ccc(-n2nc(CCCNC(=O)Nc3ccc(OC(F)(F)F)cc3)cc2-c2ccccc2)cc1` had a melting point of 206 to 207 °C.

As to `CCCCCCCCCCCCCC(C)Oc1c(I)cc(I)cc1I` (stereo not drawn), the melting point lay within 56 to 58 °C.

`CS(=O)(=O)c1ccc(-c2cnn(-c3ccc([N+](=O)[O-])cc3)c(=O)c2-c2ccc(F)cc2)cc1`: the melting point lay within 110 to 116 °C.

In the case of `CCCCc1nc(C)c(CC(=S)N2CCCC2)c(=O)n1Cc1ccc(-c2ccccc2-c2nnn[nH]2)cc1`, the melting point lay in the range of 94.4 to 97.3 °C.

Regarding `COC(=O)[C@@H](C)Nc1ncccc1[N+](=O)[O-]`, the melting point lay within 39 to 40 °C.

With `CCCCC(=N)NC(=O)N(C)c1ccc(Cl)cc1`, the melting point fell in the range of 59 to 61 °C.

Regarding `O=C(O)CCC(=O)CCS`, the melting point is 40 to 42 °C.

`NC(=O)c1ccc(N2CCN(CCC3CCc4ccccc43)CC2)cc1` (stereo not drawn) yielded a melting point of 204 to 205 °C.

Turning to `CCOC(=O)CNC(=O)/C=C/S(=O)(=O)c1ccccc1`, the melting point lay in the range of 156 to 157 °C.

Molecule `CCCCN(CCCC)c1ccc(C(C#N)=c2ccc(=C(C#N)C#N)cc2)c(OC)c1` had a melting point of 215 to 238 °C.

With `Oc1cc(C(F)(F)F)nn1C1CCCCO1` (stereo not drawn), the melting point lay in the range of 129 to 130 °C.

Regarding `CCC1CC2=C3C(=CN(OC)C2OC)OCCC3C1` (stereo not drawn), the melting point is 207 to 210 °C.

The molecule `CC(=O)n1ccc2c(I)ncnc21` returned a melting point of 123 to 124 °C.

Turning to `ClCCOc1ccc2ccccc2c1`, the melting point came out at 94 °C.

`O=c1c2cc(F)c(N3CCCC3)cc2n(CC2CC2)c(=O)n1O` registered a melting point of 211 to 213 °C.

The molecule `Cc1ccc(CC2CCN(C(=O)c3nc4ccc(O)cc4[nH]3)CC2)cc1` displayed a melting point of 93 °C.

In turn, `Cc1ccn(-c2ccc(C(=O)N3Cc4cccnc4Nc4ccccc43)c(C(F)(F)F)c2)n1` registered a melting point of 183 to 185 °C.

The molecule `COC(=O)C1=C(C)NC2=C(C(=O)OC2)C1c1cccc(Br)c1` (stereo not drawn) yielded a melting point of 229 to 231 °C.

On to `COCC(O)COc1ccc2nc(S(N)(=O)=O)sc2c1` (stereo not drawn), for which the melting point lay in the range of 153 to 155 °C.

`CN1CCC(C2(O)c3ccccc3Oc3ccc(F)cc32)CC1` (stereo not drawn) showed a melting point of 193 to 200 °C.

For `N=C(N)NCCCOc1ccc2c(c1)CC(CC(=O)O)C(=O)N2` (stereo not drawn), the melting point is 178 to 179 °C.

The molecule `COCCOCOc1c(Cl)cc(C=O)c(Cl)c1OCOCCOC` gave a melting point of 50 °C.

On to `CC(C)CC(NC(=O)C(Cc1ccc(OCc2ccccc2)cc1)NC(=O)OC(C)(C)C)C(=O)NCC(=O)OCc1ccccc1` (stereo not drawn) (Boc-Tyr(Bn)-Leu-Gly-OBn; configuration not given here), for which the melting point lay within 114 to 116 °C.

Take `S=C1NCC2c3ccccc3Cc3ccccc3N12` (stereo not drawn): the melting point lay within 222 to 224 °C.

Consider `COc1ccccc1CN[C@H]1CCCN(CCO)[C@H]1c1ccccc1` (relative stereo), for which the melting point lay in the range of 148 to 149 °C.

`CCOC(=O)C1=C(C)NC(N)=C(C(=O)OCC)C1c1cccc([N+](=O)[O-])c1` (stereo not drawn): the melting point came to 169 °C.

Take `O=C(Cc1ccc(-n2ccnc2)cc1)NOc1ccccn1`: the melting point amounted to 110 °C.

Molecule `CC(=O)NC[C@H]1CN(c2ccc(N3CCC(F)(CI)CC3)c(F)c2)C(=O)O1` displayed a melting point of 166 to 168 °C.

In turn, `CC(=O)OC1CSC(Oc2cccc(-c3ccnc(F)c3)c2)C(OC(C)=O)C1OC(C)=O` (stereo not drawn) gave a melting point of 117 °C.

`CCN(CC)Cc1ccc2nc(-c3ccccc3F)cc(OCc3ccccc3)c2c1` came in with a melting point of 51.2 to 51.5 °C.

`CCOC(=O)c1cnc2cn[nH]c2c1Nc1ccccc1` had a melting point of 164 to 165 °C.

For the molecule `O=C(N[C@H](Cc1ccc(C(F)(F)F)cc1)[C@@H](O)c1cccc(Cl)n1)c1ccc(F)c2ccccc12` (racemic), the melting point fell in the range of 225 to 226 °C.

The molecule `COC(=O)CCCc1cc2cc(Cl)ccc2n1S(=O)(=O)c1ccc(S(=O)(=O)N2CCOCC2)cc1` showed a melting point of 54 °C.

As for `N#CC1(C2(O)CCCCC2)Cc2cc3c(cc21)NCC3` (stereo not drawn), the melting point was 168 to 170 °C.

Turning to `Nc1ccc(OC2=CC=CN(Oc3ccc(N)cc3)C2)cc1`, the melting point fell in the range of 152 to 154 °C.
